From publication PMC9879182, “New benzothiazole hybrids as potential VEGFR-2 inhibitors: design, synthesis, anticancer evaluation, and in silico study” (Journal of Enzyme Inhibition and Medicinal Chemistry, 2023)
Read-outs that look alike come from different tables or passages of the source.

Assays:
[1] = tested on: HCT-116 (colorectal carcinoma); test: MTT cytotoxicity assay, HCT-116; type: cell-based; conditions: Homo sapiens, mean ± SD, triplicate
Method: (§1) The in vitro anticancer activity of the new benzothiazole hybrids was evaluated by performing MTT assay as in the literature[51]^,[55]^,[56].

MCF-7 (breast cancer) = test: MTT cytotoxicity assay, MCF-7; type: cell-based; conditions: Homo sapiens, MCF7, mean ± SD, triplicate
Method: as §1

VEGFR-2 [2] = target: T1, VEGFR-2 (Homo sapiens, UniProt P35968); test: In vitro VEGFR-2 kinase inhibitory assay; type: biochemical; conditions: for inhibition at 1 µM: VEGFR-2, compound at 1 μM; for inhibition at 10 µM: VEGFR-2, compound at 10 μM; for % Inhibition 10 nm: VEGFR-2, compound at 10 nm; for % Inhibition 100 nm: VEGFR-2, compound at 100 nm; for IC50: four concentrations 10 nM–10 μM
T1 construct: VEGFR-2 enzyme assay was performed as reported[57]

[3] = tested on: HCT-116, HEPG-2, and MCF-7; test: MTT cytotoxicity assay, range over the three cancer cell lines; type: cell-based, human; conditions: range over HCT-116, HEPG-2 and MCF-7, read-out: IC50 range towards the three cell lines
Method: as §1

[4] = tested on: HEPG-2 (hepatocellular carcinoma); test: MTT cytotoxicity assay, HepG-2; type: cell-based; conditions: Homo sapiens, HepG2, mean ± SD, triplicate
Method: as §1

[5] = tested on: WI-38 normal fibroblast cells; test: MTT cytotoxicity against normal cells; type: cell-based; conditions: Homo sapiens, mean ± SD, triplicate
Method: as §1
All tested compounds were studied for their cytotoxic activity on the WI-38 normal fibroblast WI-38 cells to assess their therapeutic safety.

MCF-7 cells [6] = test: Annexin V-FITC/PI apoptosis assay; type: cell-based, human; conditions: MCF-7, 24 h; untreated control 0.59%
Method: The extent of apoptosis was evaluated on MCF-7 cells and Annexin V-FITC/PI apoptosis detection kit following the reported method[51]^,[59].
The development of apoptosis inducers is highly attractive therapeutic strategy for the identification of powerful anticancer drugs[67]^,[68].

MCF-7 cells [7] = test: Flow cytometry cell cycle analysis (PI staining); type: cell-based, human; conditions: for Cell cycle distribution (%) G2-M / Cell cycle distribution (%) S / Cell cycle distribution (%) G0-G1: MCF-7, IC50 concentration, 24 h; for Cell cycle distribution (%) G2-M: control (DMSO) 10.19; for Cell cycle distribution (%) S: control (DMSO) 31.89; for Cell cycle distribution (%) G0-G1: control (DMSO) 57.92; for phase of cell cycle arrest: MCF-7, 24 h
Method: It was carried out using MCF-7 cell lines stained with PI and analysed by FACS Calibur flow cytometer as reported[51]^,[58].
The cells were treated with DMSO as a control.

VEGFR-2 [8] = target: T1, VEGFR-2; conditions: cited from earlier work

T1 sequence (P35968 20-1356): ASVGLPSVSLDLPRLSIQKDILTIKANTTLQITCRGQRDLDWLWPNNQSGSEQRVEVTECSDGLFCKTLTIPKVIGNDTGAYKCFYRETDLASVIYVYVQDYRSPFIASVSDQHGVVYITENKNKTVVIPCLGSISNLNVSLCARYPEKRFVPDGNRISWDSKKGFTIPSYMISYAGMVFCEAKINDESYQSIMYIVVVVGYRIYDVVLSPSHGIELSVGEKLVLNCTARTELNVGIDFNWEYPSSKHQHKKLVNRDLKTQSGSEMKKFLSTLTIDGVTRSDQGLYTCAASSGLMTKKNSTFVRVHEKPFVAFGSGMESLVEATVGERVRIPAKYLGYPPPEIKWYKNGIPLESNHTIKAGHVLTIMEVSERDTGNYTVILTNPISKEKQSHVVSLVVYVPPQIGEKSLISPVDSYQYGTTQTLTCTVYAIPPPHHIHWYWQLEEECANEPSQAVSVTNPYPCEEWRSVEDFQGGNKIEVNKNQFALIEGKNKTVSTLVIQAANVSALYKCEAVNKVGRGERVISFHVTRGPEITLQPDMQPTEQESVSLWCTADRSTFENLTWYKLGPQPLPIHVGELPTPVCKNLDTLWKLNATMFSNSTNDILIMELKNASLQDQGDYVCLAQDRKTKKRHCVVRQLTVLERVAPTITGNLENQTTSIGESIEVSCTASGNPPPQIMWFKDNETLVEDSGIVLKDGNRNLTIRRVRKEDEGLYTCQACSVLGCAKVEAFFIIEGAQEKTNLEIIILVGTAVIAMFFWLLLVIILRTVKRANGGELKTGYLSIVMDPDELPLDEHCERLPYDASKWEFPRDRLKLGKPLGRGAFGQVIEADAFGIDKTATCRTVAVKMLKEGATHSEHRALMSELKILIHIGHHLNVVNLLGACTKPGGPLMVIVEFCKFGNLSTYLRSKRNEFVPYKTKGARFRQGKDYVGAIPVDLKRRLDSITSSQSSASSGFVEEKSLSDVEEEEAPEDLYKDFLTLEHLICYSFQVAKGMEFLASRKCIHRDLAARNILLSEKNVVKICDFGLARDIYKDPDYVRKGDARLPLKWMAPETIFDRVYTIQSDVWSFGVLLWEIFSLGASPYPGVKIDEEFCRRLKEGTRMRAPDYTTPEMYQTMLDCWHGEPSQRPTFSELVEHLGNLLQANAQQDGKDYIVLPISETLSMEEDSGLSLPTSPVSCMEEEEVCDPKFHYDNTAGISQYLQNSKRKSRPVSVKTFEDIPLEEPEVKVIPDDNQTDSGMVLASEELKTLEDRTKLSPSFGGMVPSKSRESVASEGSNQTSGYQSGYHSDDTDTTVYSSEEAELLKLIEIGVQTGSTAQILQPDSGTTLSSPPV

Question: Which IC50 [1] does the source give for O=C(CN1C(=O)SC(=Cc2ccc(F)cc2)C1=O)Nc1nc2ccc([N+](=O)[O-])cc2s1 [4a, 2-(5-(4-Fluorobenzylidene)-2,4-dioxothiazolidin-3-yl)-N-(6-nitrobenzo[d]thiazol-2-yl)acetamide] here?
Answer: Its IC50 is 5.61 ± 0.3 µM.

Question: What about the IC50 (MCF-7 (breast cancer)) of the same compound?
Answer: The IC50 was 3.84 ± 0.1 µM.

Question: What about the inhibition at 1 µM (VEGFR-2 [2]) of the same compound?
Answer: The inhibition at 1 µM was 77.9%.

Question: And the inhibition at 10 µM (VEGFR-2 [2])?
Answer: The inhibition at 10 µM was 92%.

Question: What about the “% Inhibition 10 nm” value (VEGFR-2 [2]) of the same compound?
Answer: The value was 31.27%.

Question: And the “% Inhibition 100 nm” value (VEGFR-2 [2])?
Answer: Its value is 45.14%.

Question: And the IC50 (VEGFR-2 [2])?
Answer: Its IC50 is 91 nM.

Question: And the IC50 ([3]; Homo sapiens)?
Answer: Its IC50 is 3.84 to 9.04 µM.

Question: What about the IC50 [4] of the same compound?
Answer: Its IC50 is 7.92 ± 0.6 µM.

Question: And the IC50 [5]?
Answer: The IC50 was 45.2 ± 2.6 µM.

Question: And the “ratio of total apoptotic cells (early and late apoptotic cells)” value (MCF-7 cells [6])?
Answer: The value was 49.71%.

Question: What about the “Cell cycle distribution (%) G2-M” value (MCF-7 cells [7]) of the same compound?
Answer: The value was 3.28%.

Question: And the “Cell cycle distribution (%) S” value (MCF-7 cells [7])?
Answer: The value was 49.85%.

Question: And the “Cell cycle distribution (%) G0-G1” value (MCF-7 cells [7])?
Answer: Its value is 46.87%.

Question: Which IC50 [1] does the source give for COc1ccc(C=C2SC(=O)N(CC(=O)Nc3nc4ccc([N+](=O)[O-])cc4s3)C2=O)cc1 [4b, 2-(5-(4-Methoxybenzylidene)-2,4-dioxothiazolidin-3-yl)-N-(6-nitrobenzo[d]thiazol-2-yl)acetamide] here?
Answer: The IC50 was 29.9 ± 2.2 µM.

Question: What about the IC50 (MCF-7 (breast cancer)) of the same compound?
Answer: Its IC50 is 22.3 ± 1.7 µM.

Question: And the IC50 ([3]; Homo sapiens)?
Answer: Its IC50 is 22.3 to 34.7 µM.

Question: What about the IC50 [4] of the same compound?
Answer: Its IC50 is 34.7 ± 2.4 µM.

Question: What about the IC50 [5] of the same compound?
Answer: Its IC50 is 77.6 ± 4.3 µM.

Question: Which results are given for O=C(CN1C(=O)SC(=Cc2ccc(Br)cc2)C1=O)Nc1nc2ccc([N+](=O)[O-])cc2s1 [4c, 2-(5-(4-Bromobenzylidene)-2,4-dioxothiazolidin-3-yl)-N-(6-nitrobenzo[d]thiazol-2-yl)acetamide]?
Answer: IC50 [1]: 47.9 ± 2.9 µM; IC50 (MCF-7 (breast cancer)): 50.1 ± 2.9 µM; IC50 ([3]; Homo sapiens): 47.9 to 65.5 µM; IC50 [4]: 65.5 ± 3.6 µM; IC50 [5]: 28.9 ± 2.2 µM

Question: What does the source list for Cc1ccc(C=C2SC(=O)N(CC(=O)Nc3nc4ccc([N+](=O)[O-])cc4s3)C2=O)cc1 [4d, 2-(5-(4-Methylbenzylidene)-2,4-dioxothiazolidin-3-yl)-N-(6-nitrobenzo[d]thiazol-2-yl)acetamide]?
Answer: IC50 [1]: 26.8 ± 2.1 µM; IC50 (MCF-7 (breast cancer)): 15.5 ± 1.2 µM; melting point: 201 to 203 °C; IC50 ([3]; Homo sapiens): 15.5 to 26.8 µM; IC50 [4]: 21.1 ± 1.8 µM; IC50 [5]: 74 ± 4.1 µM

Question: What does the source list for COc1cc(C=C2SC(=O)N(CC(=O)Nc3nc4ccc([N+](=O)[O-])cc4s3)C2=O)cc(OC)c1OC [4e, 2-(2,4-Dioxo-5–(3,4,5-trimethoxybenzylidene)thiazolidin-3-yl)-N-(6-nitrobenzo[d]thiazol-2-yl)acetamide]?
Answer: IC50 [1]: 8.24 ± 0.6 µM; IC50 (MCF-7 (breast cancer)): 6.11 ± 0.4 µM; inhibition at 1 µM (VEGFR-2 [2]): 70.5%; inhibition at 10 µM (VEGFR-2 [2]): 88.7%; % Inhibition 10 nm (VEGFR-2 [2]): 24.09%; % Inhibition 100 nm (VEGFR-2 [2]): 42.84%; IC50 (VEGFR-2 [2]): 161 nM; IC50 ([3]; Homo sapiens): 3.84 to 9.04 µM; IC50 [3]: 6.11 to 9.04 µM; IC50 [4]: 9.04 ± 0.8 µM; IC50 [5]: 32.8 ± 2.3 µM; ratio of total apoptotic cells (early and late apoptotic cells) (MCF-7 cells [6]): 42.17%; phase of cell cycle arrest (MCF-7 cells [7]): S phase; Cell cycle distribution (%) G2-M (MCF-7 cells [7]): 4.99%; Cell cycle distribution (%) S (MCF-7 cells [7]): 42.66%; Cell cycle distribution (%) G0-G1 (MCF-7 cells [7]): 52.35%

Question: Which IC50 [1] does the source give for Cc1ccc(-c2nc(SCC(=O)Nc3nc4ccc([N+](=O)[O-])cc4s3)[nH]c(=O)c2C#N)cc1 [8a] here?
Answer: Its IC50 is 13.9 ± 1 µM.

Question: What about the IC50 (MCF-7 (breast cancer)) of the same compound?
Answer: Its IC50 is 10.9 ± 0.8 µM.

Question: What about the inhibition at 1 µM (VEGFR-2 [2]) of the same compound?
Answer: The inhibition at 1 µM was 70.1%.

Question: What about the inhibition at 10 µM (VEGFR-2 [2]) of the same compound?
Answer: The inhibition at 10 µM was 83.5%.

Question: What about the “% Inhibition 10 nm” value (VEGFR-2 [2]) of the same compound?
Answer: The value was 16.31%.

Question: What about the “% Inhibition 100 nm” value (VEGFR-2 [2]) of the same compound?
Answer: The value was 37.14%.

Question: And the IC50 (VEGFR-2 [2])?
Answer: The IC50 was 266 nM.

Question: And the IC50 ([3]; Homo sapiens)?
Answer: Its IC50 is 10.9 to 18.1 µM.

Question: And the IC50 [4]?
Answer: The IC50 was 18.1 ± 1.4 µM.

Question: What about the IC50 [5] of the same compound?
Answer: Its IC50 is 53.1 ± 3.1 µM.

Question: And the “ratio of total apoptotic cells (early and late apoptotic cells)” value (MCF-7 cells [6])?
Answer: The value was 30.75%.

Question: What about the “phase of cell cycle arrest” value (MCF-7 cells [7]) of the same compound?
Answer: Its value is “G1/S phase”.

Question: What about the “Cell cycle distribution (%) G2-M” value (MCF-7 cells [7]) of the same compound?
Answer: The value was 2.53%.

Question: And the “Cell cycle distribution (%) S” value (MCF-7 cells [7])?
Answer: Its value is 36.11%.

Question: What about the “Cell cycle distribution (%) G0-G1” value (MCF-7 cells [7]) of the same compound?
Answer: The value was 61.36%.

Question: With CNC(=O)c1cc(Oc2ccc(NC(=O)Nc3ccc(Cl)c(C(F)(F)F)c3)cc2)ccn1 [SOR, Sorafenib, reference compound] as the compound, how does the IC50 [1] read?
Answer: The IC50 was 5.23 ± 0.3 µM.

Question: And the IC50 (MCF-7 (breast cancer))?
Answer: Its IC50 is 4.17 ± 0.2 µM.

Question: What about the IC50 [4] of the same compound?
Answer: Its IC50 is 4.5 ± 0.2 µM.

Question: What about the IC50 [5] of the same compound?
Answer: Its IC50 is 6.72 ± 0.5 µM.

Question: For O=C(CN1C(=O)S/C(=C\c2ccc(F)cc2)C1=O)Nc1nc2ccccc2s1 [X], which IC50 (VEGFR-2 [8]) is on record?
Answer: Its IC50 is 0.19 µM.
